The values below come from patent publication US6303596A, “Use of taurolidine for treatment of leukemias” (priority 2000, dated 2001).

Several values for one entry are separate records, joined by “and”; a condition that tells them apart may be missing. Equal entries are not always repeated.

One data set deals with Lymphocytes. Nature of the data set: tissue or blood. It is filed as cell-based, human. The settings on record: whole blood. The protocol:
(§1) FIGS. 15A, 15B, and 15C depict TUNEL analysis of PBMC treated with taurolidine in whole blood, for control cells, taurolidine-treated cells, and anisomycin-treated cells, respectively . Cells were incubated with 500 μg/ml taurolidine for 4 hours, resuspended in fresh medium, incubated for two hours further and processed for TUNEL analysis. Parallel samples were stained with FITC-conjugated anti-CD14 and PI as described herein. Ten thousand events were recorded per sample. TUNEL signal (x -axis) is a measure of DNA fragmentation, while FSC (y-axis) is related to cell size. TUNEL-negative lymphocytes are bounded by rectangle R 1, while TUNEL-negative monocytes (CD 14 positive cells) are bounded by rectangle R2. R3 bounds the TUNEL-positive population of cells. There were minimal numbers of PI-positive cells in 6 hour samples (see Table VI).
(§2) In the second method, DNA fragmentation was detected via TUNEL assay according to the manufacturer's instructions. With this methodology, 2×10^6 cells were fixed with 2% paraformaldehyde, permeabilized with 0.1% Triton X-100/0.1% citrate, incubated at 37° C. with terminal deoxynucleotidyl transferase and FITC-dUTP, rinsed and analyzed by flow cytometry. Enhanced FITC signal indicates apoptosis-specific DNA fragmentation. Gavriali, et al, "Identification of programmed cell death in situ via specific labeling of nuclear DNA fragmentation," J Cell Biol 119:493 (1992). Parallel aliquots of unfixed cells were treated with PI and FITC-conjugated anti-CD14 and analyzed by flow cytometry, in order to identify cells with permeable cell membranes (since PI binds to DNA but is excluded from cells with intact plasma membranes) and also to determine the cell-specificity of the apoptotic signal.
(§3) Taurolidine at 100 μg/ml induced apoptosis of approximately 75% of purified peripheral blood monocytes when these cells were incubated in culture medium. However, in order to more closely mimic the milieu of leukocytes in vivo, induction of apoptosis in PBMC by taurolidine was studied in whole blood (anticoagulated with heparin). As before, apoptosis was quantitated by measuring the loss of monocytes from a TUTNEL-negative (no DNA fragmentation), CD 14 positive population of cells which was concomitant with the appearance of a TUNEL-positive population of cells. Treatment of PBMC in whole blood resulted
(§4) in a shift of the taurolidine dose-response curve. […] As a positive control for induction of apoptosis, some cells were treated with anisomycin, a protein synthesis inhibitor known to induce apoptosis in monocytes.
(§5) ^a Analysis by flow cytometry after staining cells with PI and
(§6) processing for TUNEL. Data are mean ± SD of 2 experiments.
(§7) ^b Percent of cells present in the TUNEL-negative region in control

Another data set deals with Monocytes. In words: tissue or blood. It is filed as cell-based, human. The protocol: as §1, §2, §3, §4, §5, §6, §7
The subject of another data set is MM6. Nature of the data set: TUNEL / propidium iodide flow cytometry, MM6. It is filed as cell-based, human. The note with it: MM6; taurolidine 100 μg/ml or anisomycin 1 μg/ml for 4 h, assayed at 6 hours; mean ± SD. The protocol:
as §2
(§8) Consequently, TUNEL analysis was performed on PBMC at 3, 6, or 24 hours after treatment with 25 to 100 μg/ml taurolidine. Aliquots of harvested cells were also labeled with FITC-conjugated anti-CD14 antibodies and PI, which allowed identification of monocytes (CD14-positive cells) and cells with damaged cell membranes (PI-positive cells). […] Thus, nearly 75% of the monocytes were TUNEL-positive following treatment with 100 μg/ml taurolidine for six hours. Confirmation that the TUNEL-positive cells were monocytes was obtained by staining with FITC-conjugated anti-CD14.
(§9) In another study, TUNEL assays were performed on all cell lines 6 hours after cells were initially exposed to taurolidine (cells were treated for 4 hours, rinsed, and then incubated for 2 more hours before TUNEL assay was performed).
(§10) . Taurolidine and anisomycin induced apoptosis in MM6, HL-60, and Jurkat cells (Table VIII). MM6 and HL-60 cells were similarly effected, with >80% TUNEL-positive cells after 6 hours. Jurkat cells were less sensitive, with approximately 50% of cells induced to undergo apoptosis after taurolidine treatment. After 6 hours, 73% of anisomycin-treated REH cells were apoptotic, with less than 20% of taurolidine-treated REH cells being TUNEL-positive. However, assay of cells 24 hours after
(§11) ^a Analysis by flow cytometry after staining cells with propidium
(§12) iodide and processing for TUNEL.
(§13) Data are percent of total cell-size events, and are expressed as mean ±
(§14) Cells were treated for 4 hours with taurolidine (100 μg/ml) or
(§15) anisomycin (1 μg/ml), and then assayed at 6 hours.
(In general: Flow cytometry measures light scatter and fluorescence of single cells or particles in a stream.)

The next data set has as its system K562. In words: TUNEL / propidium iodide flow cytometry, K562. The format is cell-based, human. The note with it: taurolidine 100 μg/ml or anisomycin 1 μg/ml for 4 h, mean ± SD. How it is done: as §2, §9, §10, §11, §12, §13, §14, §15
(§16) Data are percent of total cell-sized events, and are expressed as mean ±
(§17) anisomycin (1 μg/ml), and then assayed at 24 hours.

For another data set, the system named is HL-60. Nature of the data set: TUNEL / propidium iodide flow cytometry, HL-60. It is filed as cell-based, human. The note with it: HL-60; taurolidine 100 μg/ml or anisomycin 1 μg/ml for 4 h, assayed at 6 hours; mean ± SD. The protocol: as §2, §8, §9, §10, §11, §12, §13, §14, §15
For a further data set, the system named is REH. In words: TUNEL / propidium iodide flow cytometry, REH. The format is cell-based, human. The settings on record: taurolidine 100 μg/ml or anisomycin 1 μg/ml for 4 h, mean ± SD. How it is done: as §2, §9, §10, §11, §12, §13, §14, §15, §16, §17
Another data set has as its system Jurkat. In words: TUNEL / propidium iodide flow cytometry, Jurkat. It is filed as cell-based, human. The note with it: taurolidine 100 μg/ml or anisomycin 1 μg/ml for 4 h, assayed at 6 hours, mean ± SD. How it is done:
as §2, §9
(§18) . Taurolidine and anisomycin induced apoptosis in MM6, HL-60, and Jurkat cells (Table VIII). MM6 and HL-60 cells were similarly effected, with >80% TUNEL-positive cells after 6 hours. […]
(§19) Data are percent of total cell-size events, and are expressed as mean ± […]

The next data set relates to ECV304. In words: TUNEL / propidium iodide flow cytometry, ECV304. It is filed as cell-based, human. The note with it: ECV304; taurolidine 100 μg/ml or anisomycin 1 μg/ml for 4 h, assayed at 6 hours; mean ± SD. The protocol:
as §2, §9, §18, §19

A further data set has as its system GM5387. Nature of the data set: TUNEL / propidium iodide flow cytometry, GM5387. It is filed as cell-based, human. The note with it: GM5387; taurolidine 100 μg/ml or anisomycin 1 μg/ml for 4 h, assayed at 6 hours; mean ± SD. The protocol:
as §2, §9, §18, §19

The test system of a further data set is tissue factor (TF). Nature of the data set: LPS-induced tissue factor (TF) expression in MM6 cells, ELISA. The format is cell-based, human. The settings on record: MM6, taurine up to 0.5 mg/ml. How it is done: FIG. 2A represents MM6 cells; FIG. 2B represents PBMC. The cells were induced with LPS (hatched bars: 100 ng/ml LPS in RPMI supplemented with 10% BCS (RPMI+10% BCS); solid bars: 10 ng/ml in AIM-V+0.01% BCS) in the presence of varying concentrations of taurolidine,or with a dilution of the vehicle equivalent to that given to cells receiving 100 μg/ml taurolidine. After four hours, cells were collected and lysates were prepared for TF ELISA. Data are expressed as percent of TF antigen measured in cells treated with LPS alone (no taurolidine or vehicle). Experiments were performed with duplicate samples and were repeated at least three times. Values shown are mean±SEM of all experiments.
All cells were cultured in a 5% CO2 atmosphere at 37° C. MM6 cells were grown in RPMI supplemented with 10% BCS, 2 mM L-glutamine, and 50 μg/ml gentamicin (RPMI+10% BCS). In some experiments, MM6 cells were rinsed once with HBSS without Ca^++ or Mg^++ and once with AIM-V before finally being resuspended in AIM-V supplemented with 0.01% BCS (AIM-V+0.01% BCS). […] AIM-V was supplemented with a low amount of BCS (0.01%) in order to provide a source of LPS-binding protein, which enhances the response of monocytic cells to LPS. […] HL-60, REH, and Jurkat were cultured in RPMI supplemented with 10% heat inactivated fetal bovine serum (FBS), 2 mM L-glutamine, and 50 μg/ml gentamicin. ECV304 were cultured in M199 supplemented with 10% FBS, mM L-glutamine, and 50 μg/ml gentamicin. GM5387 was cultured in MEM supplemented with 20% FBS, 2 mM L-glutamine, and 50 μg/ml gentamicin.
For induction of TF or TNFα expression, MM6 cells or PBMC were cultured either in RPMI supplemented with 10% BCS or in AIM-V+0.01% BCS, and stimulated by adding LPS to final concentrations of 10 to 100 ng/ml. […] Except as noted, taurolidine and LPS were added to the cell cultures simultaneously. For TF determination, cells and culture media together were treated by adding Triton X-100 (1% final) and EDTA (7 mmol/L final), and the resulting lysates assayed by ELISA. […] For TNFα determination, cells were removed by centrifugation for 5 min at 250×g, and the supernatants were assayed by ELISA.
In general terms: An ELISA detects its analyte on a solid surface through an enzyme-linked reagent.

A further data set relates to TNFα. Nature of the data set: LPS-induced TNFα expression/secretion by MM6 cells, ELISA. The settings on record: MM6, taurine 44 μg/ml. It is filed as cell-based, human. How it is done: FIG. 3A and FIG. 3B are graphs depicting taurolidine inhibition of LPS-induced alpha […] (TNFα) expression by monocytic cells as determined by assay procedures. FIG. 3A represents MM6 cells; FIG. 3B represents PBMC. The cells were induced with LPS (hatched bars: 100 ng/ml LPS in RPMI+10% BCS; solid bars: 10 ng/ml in AIM-V+0.01% BCS) in the presence of varying concentrations of taurolidine. After four hours, cell supernatants were collected for TNFα ELISA. Data are expressed as percent of TNFα levels measured in cell cultures treated with LPS alone (no taurolidine or vehicle). Experiments were performed with duplicate samples and were repeated at least three times. Values shown in FIG. 3A are from a representative experiment. Values shown in FIG. 3B are mean±SEM of three experiments.
All cells were cultured in a 5% CO2 atmosphere at 37° C. MM6 cells were grown in RPMI supplemented with 10% BCS, 2 mM L-glutamine, and 50 μg/ml gentamicin (RPMI+10% BCS). In some experiments, MM6 cells were rinsed once with HBSS without Ca^++ or Mg^++ and once with AIM-V before finally being resuspended in AIM-V supplemented with 0.01% BCS (AIM-V+0.01% BCS). […] AIM-V was supplemented with a low amount of BCS (0.01%) in order to provide a source of LPS-binding protein, which enhances the response of monocytic cells to LPS. Ulevitch, R. J. and Tobias, P. S., "Recognition of endotoxin by cells leading to transmembrne signaling," Curr Opin Immunol 6:125 (1994). HL-60, REH, and Jurkat were cultured in RPMI supplemented with 10% heat inactivated fetal bovine serum (FBS), 2 mM L-glutamine, and 50 μg/ml gentamicin. ECV304 were cultured in M199 supplemented with 10% FBS, mM L-glutamine, and 50 μg/ml gentamicin. GM5387 was cultured in MEM supplemented with 20% FBS, 2 mM L-glutamine, and 50 μg/ml gentamicin.
For induction of TF or TNFα expression, MM6 cells or PBMC were cultured either in RPMI supplemented with 10% BCS or in AIM-V+0.01% BCS, and stimulated by adding LPS to final concentrations of 10 to 100 ng/ml. […]

Another data set deals with human blood monocytes. The note with it: cited from earlier work.

Regarding `COc1ccc(C[C@H]2NC[C@H](O)[C@H]2OC(C)=O)cc1` [anisomycin], the “induction of apoptosis in lymphocytes” value with Lymphocytes is recorded as “no evidence for a significant effect”. Further, the “TUNEL-negative monocytes after anisomycin” value in the data set on Monocytes (PBMC in whole blood) was “loss of TUNEL-negative monocytes”. For the same molecule, the “TUNEL-positive cells after anisomycin” value in the data set with Monocytes (whole blood, 6 hour incubation, versus taurolidine) is recorded as “fewer TUNEL-positive cells”. For the same molecule, the “% TUNEL-positive” value in the data set on MM6 is > 80% and 92.0 ± 2.3%; with K562 (assayed at 24 hours) it was 2.2 ± 6.2%; in the data set on K562 (assayed at 24 hours, listed as Anisomycin), “less than 10%”; in the data set on HL-60, > 80% and 96.1 ± 6.8%; in the data set with REH (assayed at 6 hours) it was 73% and 72.9 ± 7.4%; in the data set with REH (assayed at 24 hours) it was 53.0 ± 2.6%. Also, the “% TUNEL-positive” value with Jurkat worked out at 69.6 ± 19.8%. Further, the “% propidium iodide positive” value with MM6 came to 19.1 ± 5.4%; in the data set on K562 (assayed at 6 hours), 4.8 ± 3.1%; in the data set with HL-60 it was 28.3 ± 15.3%; with REH (assayed at 6 hours), 18.4 ± 0.5%; with Jurkat, 5.1 ± 3.4%; with ECV304, 2.2 ± 3.1%. Also, in the data set with GM5387, the “% propidium iodide positive” value is listed as 5.4 ± 3.2%. Also, the entries for the “% propidium iodide” value in the data set with K562 (assayed at 24 hours) and with REH (assayed at 24 hours) were 7.1 ± 2.3% and 51.6 ± 17.0%, respectively.
With `NCCS(=O)(=O)O` [taurine], the “effect on TF expression” value with tissue factor (TF) is given as “no effect on TF expression”. Moreover, in the data set on TNFα, the “effect on TNFα expression” value was “no effect on TNFα expression”.

B1: IL-4: anti-inflammatory cytokine IL-4 (protein, UniProt P05112 25-153, looked up)
Interleukin-4: HKCDITLQEIIKTLNSLTEQKTLCTELTVTDIFAASKNTTEKETFCRAATVLRQFYSHHEKDTRCLGATAQQFHRHKQLIRFLKRLDRNLWGLAGLNSCPVKEANQSTLENFLERLKTIMREKYSKCSS
For the molecule B1, the “effect on apoptosis in LPS-stimulated monocytes” value in the data set on human blood monocytes was “can enhance apoptosis”.
